# In publication PMC9525273 (Nature Communications, 2022):
# Several values for one entry are separate records, joined by “and”; a condition that tells them apart may be missing. Equal entries are not always repeated. Where two headings read alike, the source gives them in different places.
# Key:
# [1] = test system: isolated Dd2-Polδ-PfATP4^G358S P. falciparum trophozoites; assay: [Na+]cyt measurement (SBFI), Na+ dysregulation; format: cell-based, Plasmodium falciparum; design: Final [Na+]cyt reached: unit not given here
# Description: The ratio of the fluorescence intensity recorded at 340 nm and 380 nm (with an emission wavelength of 515 nm) was converted to [Na^+]cyt using a calibration procedure that entailed suspending parasites in solutions of varying [Na^+] containing ionophores. Fluorescence measurements and calibrations were performed at 37 °C, either with individual 1 mL suspensions using a PerkinElmer LS 50B fluorescence spectrometer (for resting [Na^+]cyt measurements for which the data are shown in Supplementary Fig. 7) or in 96-well plates using a Tecan Infinite M1000 PRO plate reader with i-control (version 1.12) software (all other [Na^+]cyt measurements).
# [2] = biological target: T1, PfATP4^WT (membranes from Dd2-Polδ parasites) (Plasmodium falciparum, UniProt A0A143ZZK9); assay: Membrane ATPase assay, ATP4-associated (Na+-dependent) ATPase activity; format: biochemical; conditions: for PfATP4-associated ATPase activity (% of control): single experiments
# T1 sequence (A0A143ZZK9 1-1264): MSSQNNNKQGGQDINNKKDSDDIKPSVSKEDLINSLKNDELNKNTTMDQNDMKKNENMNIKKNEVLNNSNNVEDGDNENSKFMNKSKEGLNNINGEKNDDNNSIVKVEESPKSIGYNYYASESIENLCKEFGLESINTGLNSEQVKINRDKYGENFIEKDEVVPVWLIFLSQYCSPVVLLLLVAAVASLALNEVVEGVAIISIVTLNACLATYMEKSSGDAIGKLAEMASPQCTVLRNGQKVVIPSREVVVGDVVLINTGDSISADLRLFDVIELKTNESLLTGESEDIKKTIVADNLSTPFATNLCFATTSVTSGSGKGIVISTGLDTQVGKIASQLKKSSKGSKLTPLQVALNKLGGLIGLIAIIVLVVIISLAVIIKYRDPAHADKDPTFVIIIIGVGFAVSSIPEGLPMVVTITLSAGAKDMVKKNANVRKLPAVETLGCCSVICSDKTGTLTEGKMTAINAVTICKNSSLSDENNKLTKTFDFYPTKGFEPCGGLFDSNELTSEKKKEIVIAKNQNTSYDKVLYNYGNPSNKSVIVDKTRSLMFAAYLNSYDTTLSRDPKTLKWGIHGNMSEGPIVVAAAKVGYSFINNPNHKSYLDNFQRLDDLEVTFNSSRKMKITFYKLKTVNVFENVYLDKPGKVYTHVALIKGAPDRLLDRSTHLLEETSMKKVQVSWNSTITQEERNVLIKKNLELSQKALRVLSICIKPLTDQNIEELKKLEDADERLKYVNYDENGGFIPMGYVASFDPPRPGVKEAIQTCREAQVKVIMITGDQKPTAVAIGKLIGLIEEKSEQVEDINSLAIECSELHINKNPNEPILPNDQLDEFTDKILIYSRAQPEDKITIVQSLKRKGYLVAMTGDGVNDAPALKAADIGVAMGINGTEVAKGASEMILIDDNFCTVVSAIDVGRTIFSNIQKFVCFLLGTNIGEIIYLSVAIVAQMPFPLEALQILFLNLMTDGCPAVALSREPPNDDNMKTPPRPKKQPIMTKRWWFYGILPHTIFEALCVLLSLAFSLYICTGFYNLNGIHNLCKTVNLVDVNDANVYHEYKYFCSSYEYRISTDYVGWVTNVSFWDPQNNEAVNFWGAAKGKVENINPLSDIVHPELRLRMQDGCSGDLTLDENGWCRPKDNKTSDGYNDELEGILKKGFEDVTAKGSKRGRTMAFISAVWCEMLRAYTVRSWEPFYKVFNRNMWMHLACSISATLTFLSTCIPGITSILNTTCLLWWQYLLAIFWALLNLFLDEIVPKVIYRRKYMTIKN
# Description: Membranes from isolated P. falciparum or extracellular T. gondii parasites were prepared by lysing parasites in ice-cold deionized water containing a 1:500 dilution of Protease Inhibitor Cocktail Set III (Merck Millipore), then washing the membrane preparation three times in ice-cold deionized water (with protease inhibitors present for the first two washes)[15]. Protein concentrations in the membrane preparations were measured using a Bradford assay. The PiColorLock Gold Phosphate Detection System (Innova Biosciences) was used to measure the production of Pi from hydrolysis of ATP[15]. Membrane preparations were diluted in either a high Na^+ solution (yielding final conditions in the reactions of 150 mM NaCl, 20 mM KCl, 2 mM MgCl2, 50 mM Tris, pH 7.2) or a Na^+-free solution (yielding final conditions of 150 mM choline chloride, 20 mM KCl, 2 mM MgCl2, 50 mM Tris, pH 7.2) to achieve a total protein concentration of 50 μg/mL. […] The reactions were performed at 37 °C, and were initiated by the addition of 1 mM ATP (Na2ATP۰3H2O; MP Biomedicals) and terminated 10 min later by adding 100 μL of reaction mixture (in duplicate) to 25 μL “Gold mix” in a 96-well plate. “Stabiliser” was added 3 min later, and the plates incubated at room temperature in the dark for 60 min before measuring absorbance at 635 nm. Background values (averaged from wells containing all components, but to which ATP was not added until after the membrane was exposed to Gold mix) were subtracted from the data. For each treatment, the ATPase activity associated with the (Na^+-dependent) PfATP4 and TgATP4 proteins was calculated by subtracting data obtained in the low Na^+ condition (containing only the 2 mM Na^+ introduced on addition of 1 mM Na2ATP) from that obtained in the high Na^+ condition.
structure (smiles),measurement,setting,value
C[C@H]1Cc2c([nH]c3cc(Cl)c(F)cc23)[C@@]2(N1)C(=O)Nc1ccc(Cl)cc12 [Cipargamin],Final [Na+]cyt reached,"[1]; Dd2-Polδ-PfATP4G358S, [cipargamin] 4.9 nM, MEAN",28.1
same,Final [Na+]cyt reached,"[1]; Dd2-Polδ-PfATP4G358S, [cipargamin] 4.9 nM, single experiments",19.9 and 30.8 and 33.6
same,Final [Na+]cyt reached,"[1]; Dd2-Polδ-PfATP4G358S, [cipargamin] 9.8 nM, MEAN",23.6
same,Final [Na+]cyt reached,"[1]; Dd2-Polδ-PfATP4G358S, [cipargamin] 19.5 nM, MEAN",24.9
same,Final [Na+]cyt reached,"[1]; Dd2-Polδ-PfATP4G358S, [cipargamin] 39.1 nM, MEAN",26.7
same,Final [Na+]cyt reached,"[1]; Dd2-Polδ-PfATP4G358S, [cipargamin] 78.1 nM, MEAN",27.0
same,Final [Na+]cyt reached,"[1]; Dd2-Polδ-PfATP4G358S, [cipargamin] 156.3 nM, MEAN",28.5
same,Final [Na+]cyt reached,"[1]; Dd2-Polδ-PfATP4G358S, [cipargamin] 312.5 nM, MEAN",31.8
same,Final [Na+]cyt reached,"[1]; Dd2-Polδ-PfATP4G358S, [cipargamin] 625 nM, MEAN",35.9
same,Final [Na+]cyt reached,"[1]; Dd2-Polδ-PfATP4G358S, [cipargamin] 2500 nM, MEAN",55.3
same,Final [Na+]cyt reached,"[1]; Dd2-Polδ-PfATP4G358S, [cipargamin] 5000 nM, MEAN",78.8
same,Final [Na+]cyt reached,"[1]; Dd2-Polδ-PfATP4G358S, [cipargamin] 10000 nM, MEAN",93.3
same,IC50,"[1]; Dd2-Polδ-PfATP4G358S, single experiments, source data of Table 1 (nM there), read-out: IC50 for Na+ dysregulation",> 2500 nM and 3420 nM and 2100 nM and 3020 nM
same,IC50,"[1]; Plasmodium falciparum, DD2, 1.5 h, pH 7.1, Dd2-Polδ-PfATP4G358S, ~90 min exposure, 37 °C, pH 7.1, read-out: IC50 for Na+ dysregulation",> 2000 nM
same,IC50,"[1]; Plasmodium falciparum, DD2, Dd2-Polδ-PfATP4G358S, MEAN, source data of Table 1 (nM there), read-out: IC50 for Na+ dysregulation, MEAN",> 2000 nM
same,IC50,"[1]; Plasmodium falciparum, DD2, Dd2-Polδ-PfATP4G358S, single experiments, source data of Table 1 (nM there), read-out: IC50 for Na+ dysregulation",3540 nM
same,"IC50 for inhibition of ATP4-associated ATPase activity, MEAN","[2]; Dd2-Polδ membranes, MEAN, source data of Table 1 (nM there)",2.51
same,remaining activity at 3.76 pM,"[2]; Dd2-Polδ, [Cipargamin] 0.00376 nM, MEAN, read-out: PfATP4-associated ATPase activity (% of control)",75.4%
same,remaining activity at 11 pM,"[2]; Dd2-Polδ, [Cipargamin] 0.011 nM, MEAN, read-out: PfATP4-associated ATPase activity (% of control)",75%
same,PfATP4-associated ATPase activity (% of control),"[2]; Dd2-Polδ, [Cipargamin] 0.011 nM, 11 pM",92.1 % of control and 50.6 % of control and 82.7 % of control and 74.5 % of control
same,remaining activity at 34 pM,"[2]; Dd2-Polδ, [Cipargamin] 0.034 nM, MEAN, read-out: PfATP4-associated ATPase activity (% of control)",76%
same,remaining activity at 0.000102 µM,"[2]; Dd2-Polδ, [Cipargamin] 0.102 nM, MEAN, read-out: PfATP4-associated ATPase activity (% of control)",66.1%
same,remaining activity at 0.000305 µM,"[2]; Dd2-Polδ, [Cipargamin] 0.305 nM, MEAN, read-out: PfATP4-associated ATPase activity (% of control)",60.1%
same,PfATP4-associated ATPase activity (% of control),"[2]; Dd2-Polδ, [Cipargamin] 0.305 nM, 0.000305 µM",59.8 % of control and 42.8 % of control and 70.9 % of control and 66.9 % of control
same,remaining activity at 0.000914 µM,"[2]; Dd2-Polδ, [Cipargamin] 0.914 nM, MEAN, read-out: PfATP4-associated ATPase activity (% of control)",32.6%
same,remaining activity at 0.002743 µM,"[2]; Dd2-Polδ, [Cipargamin] 2.743 nM, MEAN, read-out: PfATP4-associated ATPase activity (% of control)",25.1%
same,remaining activity at 0.00823 µM,"[2]; Dd2-Polδ, [Cipargamin] 8.230 nM, MEAN, read-out: PfATP4-associated ATPase activity (% of control)",-9.5%
same,remaining activity at 0.024691 µM,"[2]; Dd2-Polδ, [Cipargamin] 24.691 nM, MEAN, read-out: PfATP4-associated ATPase activity (% of control)",-14.7%
same,remaining activity at 0.074074 µM,"[2]; Dd2-Polδ, [Cipargamin] 74.074 nM, MEAN, read-out: PfATP4-associated ATPase activity (% of control)",-19.7%
same,remaining activity at 0.222222 µM,"[2]; Dd2-Polδ, [Cipargamin] 222.222 nM, MEAN, read-out: PfATP4-associated ATPase activity (% of control)",-16.9%
same,remaining activity at 0.666667 µM,"[2]; Dd2-Polδ, [Cipargamin] 666.667 nM, MEAN, read-out: PfATP4-associated ATPase activity (% of control)",-29.5%
same,remaining activity at 1.25 pM,"[2]; Dd2-Polδ, [Cipargamin] […], MEAN, read-out: PfATP4-associated ATPase activity (% of control)",85.7%
same,IC50 for ATP4-associated ATPase activity,"[2]; membranes from Dd2-Polδ, mean ± SEM",2.5 ± 0.8 (4) nM
